Test results published in US12146889B1, “Compounds and combinations thereof for treating neurological and psychiatric conditions” (priority 2022, dated 2024).
Counter-ions that a name gives are not always drawn. Like-named read-outs stand apart in the source and are kept apart here.

How the values were obtained:
[1] = pharmacokinetics in moderate renal impairment
Excerpt: (§1) Data are GMRs and 90% CIs. References used are the matched healthy subjects for renal and hepatic impairment studies, and extensive or ultra-extensive CYP2D6 metabolizers respectively.

[2] = pharmacokinetics in moderate hepatic impairment; assay type: in vivo, human; conditions: for AUC0-12 and Cmax in moderate hepatic impairment compared with healthy patients: Group 2; for AUC Change Relative to Reference (90% CI); mean ratio of AUC0-12 / Cmax Change Relative to Reference (90% CI); mean ratio of Cmax: Moderate Hepatic Impairment (Group 2), GMR vs matched healthy subjects, after 8 days of twice daily dosing, hydrobromide monohydrate
[3] = bupropion and its metabolites; cited from earlier work
[4] = solubility of the powder in water
[5] = pharmacokinetics in CYP2D6 poor metabolizers
Excerpt: Approximately 7% to 10% of Caucasians and 3% to 8% of African Americans lack the capacity to metabolize CYP2D6 substrates and are classified as poor metabolizers.
as §1

[6] = pharmacokinetics of the subject combination at steady state; conditions: co-administered with bupropion
[7] = co-administration with strong CYP2D6 inhibitor (paroxetine)
[8] = effect of food on pharmacokinetics of the subject combination
[9] = system: patients with treatment-resistant depression or MDD; conditions: cited from earlier work
[10] = system: patients with treatment-resistant depression or MDD; conditions: cited from earlier work; remark: listed apart in the source
[11] = 7 subjects with moderate (GFR 30-60 mL/min) renal impairment vs 6 matched controls
[12] = patients having moderate renal impairment, tablets of Example 4
[13] = 3 poor metabolizers, subject combination
[14] = 20 mg of paroxetine, tablet of Example 4 twice daily, vs tablet twice daily without paroxetine
[15] = flexible-dose study, patients ≥65 years with treatment-resistant depression, 28 to 84 mg + oral AD, N = 72

CC(NC(C)(C)C)C(=O)c1cccc(Cl)c1.Cl (racemic) [bupropion, (±)-1-(3-chlorophenyl)-2-[(1,1-dimethylethyl)amino]-1-propanone hydrochloride]
increase in AUC0-12 in moderate renal impairment ([1]; human, in vivo): 1.80 fold | increase in Cmax in moderate renal impairment ([1]; human, in vivo): 1.87 fold | increase of exposure in moderate renal impairment vs matched controls with normal renal function ([1]; human, in vivo): approximately 2 fold | reduction of clearance in moderate renal impairment vs matched controls ([1]; human, in vivo): 50% | AUC0-12 and Cmax in moderate hepatic impairment compared with healthy patients [2]: not significantly different | presence in human milk [3]: presence of bupropion and its metabolites in human milk | solubility in water [4]: highly soluble in water

COc1ccc2c(c1)[C@]13CCCC[C@@H]1[C@H](C2)N(C)CC3 [dextromethorphan, morphinan, 3-methoxy-17-methyl-, (9α, 13α, 14α), hydrobromide monohydrate]
increase of exposure in moderate renal impairment vs matched controls with normal renal function [1, 11]: approximately 2 fold | reduction of clearance in moderate renal impairment vs matched controls [1, 11]: 50% | increase in AUC0-12 in moderate renal impairment [1, 12]: 2.21 fold | increase in Cmax in moderate renal impairment [1, 12]: 2.10 fold | AUC0-12 and Cmax in moderate hepatic impairment compared with healthy patients [2]: not significantly different | AUC Change Relative to Reference (90% CI); mean ratio of AUC0-12 [2]: 1.17 | Cmax Change Relative to Reference (90% CI); mean ratio of Cmax [2]: 1.21 | AUC Change Relative to Reference (90% CI); mean ratio of AUC0-12 ([2]; listed as DM): 1.17 (0.85, 1.61) | Cmax Change Relative to Reference (90% CI); mean ratio of Cmax ([2]; listed as DM): 1.21 (0.90, 1.62) | increase in AUC0-12 in poor metabolizers compared to extensive metabolizers [5, 13]: ~3.4 fold | increase in Cmax in poor metabolizers compared to extensive metabolizers [5, 13]: ~3 fold | steady state plasma concentrations in poor metabolizers vs non-poor metabolizers ([5]; 12 poor metabolizers treated with the subject combination in efficacy trials): generally higher than exposures for non-poor metabolizers | plasma concentrations in CYP2D6 poor metabolizers compared to patients who are not CYP2D6 poor metabolizers ([5]; subject composition): increases plasma concentrations of dextromethorphan | solubility in water [4]: sparingly soluble in water | dose proportionality of changes in AUC and Cmax at steady state ([6]; varying doses of bupropion (75 to 150 mg)): less than dose-proportional changes | dose proportionality of changes in AUC and Cmax at steady state ([6]; varying doses of dextromethorphan (30 to 60 mg)): greater than dose-proportional changes | increase of AUC0-12 with concomitant paroxetine [7, 14]: 2.69 fold | increase of Cmax with concomitant paroxetine [7, 14]: 2.38 fold | increase of overall exposure by paroxetine ([7]; co-administration of paroxetine and the subject combination, 29 healthy volunteers): 2.5 fold | plasma concentrations on concomitant use of the subject combination with strong CYP2D6 inhibitor ([7]; in vivo): increases plasma concentrations of dextromethorphan | decrease of AUC0-12 when administered with food [8]: 14%

CN[C@]1(c2ccccc2Cl)CCCCC1=O [esketamine, Esketamine]
Incidence of Sedation (MOAA/S score <5) ([9]; fixed-dose study, patients <65 years with treatment-resistant depression, 56 mg + oral AD, N = 114): 50% | Incidence of Sedation (MOAA/S score <5) ([9]; fixed-dose study, patients <65 years with treatment-resistant depression, 84 mg + oral AD, N = 114): 61% | Incidence of Sedation (MOAA/S score <5) [9, 15]: 49% | Incidence of Dissociation (CADSS total score >4 and change >0) ([10]; fixed-dose study, patients <65 years with treatment-resistant depression, 56 mg + oral AD, N = 113): 61% | Incidence of Dissociation (CADSS total score >4 and change >0) ([10]; fixed-dose study, patients <65 years with treatment-resistant depression, 84 mg + oral AD, N = 116): 69% | Incidence of Dissociation (CADSS total score >4 and change >0) [10, 15]: 75%
